PubChem BioAssay AID651884 (Southern Research Specialized Biocontainment Screening …, 2012)

What follows are compounds tested on VEEV TC-83 infected cells, viral CPE inhibition (assay: Cell based counter screen, viral CPE inhibition, VEEV strain KU V3526 (AID 651884)).

SMILES	IC50 [nM]
CN1CCN(C)C(=Nc2ccc([N+](=O)[O-])cc2C(=O)Nc2ccccc2)C1	19.4
CCN1CCN(Cc2nc3ccc([N+](=O)[O-])cc3c(=O)n2-c2ccccc2F)CC1	325
COc1ccc(NC(=O)c2cc([N+](=O)[O-])ccc2N=C2CN(C)CCN2C)cc1	17
CCN1CCN(C)CC1=Nc1ccc([N+](=O)[O-])cc1C(=O)Nc1ccccc1	20
